Legend:
[1] = pKa by automated Mettler Toledo titration; details: 50 weight % aqueous amine solution
[2] = Solubility of tested amine in heptane phase (gas chromatography, toluene internal standard); details: heptane 10 g, toluene 0.1 g, amine 2.5 g mixed at 20° C. for 1 hour, decanted 15 minutes; average of three injections
Protocol: A solution of heptane (10 g), toluene (0.1 g) and the tested amine (2.5 g) are mixed at 20° C. for 1 hour. The mixture is decanted for 15 minutes and the neat heptane phase is analyzed by gas chromatography using toluene as internal standard. The injection is repeated three times and peak areas of tested amine are averaged.

SMILES	pKa [1]	area counts (GC peak area of tested amine in neat heptane phase) [2] [area counts]
CN(C)C(CO)(CO)CO [DMTA, 2-dimethylamino-2-(hydroxymethyl)propane-1,3-diol]	9.1	50
NC(CO)(CO)CO [TA, 2-amino-2-(hydroxymethyl)propane-1,3-diol]	–	0
